Consider seven molecules from BindingDB's records for doi:10.1124/jpet.106.102897 (University of Kansas, 2006).

The target in assay [1] is Histamine H1 receptor (Homo sapiens, UniProt P35367).
The target of assay [2] is Histamine H1 receptor (Cavia porcellus, UniProt P31389).

SMILES strings stand for the structures. “And” between values parts separate entries of the source, which are not always exact repeats. Identical values can stand only once.

Histamine H1 receptor (Cavia porcellus, UniProt P31389), sequence (P31389 whole entry): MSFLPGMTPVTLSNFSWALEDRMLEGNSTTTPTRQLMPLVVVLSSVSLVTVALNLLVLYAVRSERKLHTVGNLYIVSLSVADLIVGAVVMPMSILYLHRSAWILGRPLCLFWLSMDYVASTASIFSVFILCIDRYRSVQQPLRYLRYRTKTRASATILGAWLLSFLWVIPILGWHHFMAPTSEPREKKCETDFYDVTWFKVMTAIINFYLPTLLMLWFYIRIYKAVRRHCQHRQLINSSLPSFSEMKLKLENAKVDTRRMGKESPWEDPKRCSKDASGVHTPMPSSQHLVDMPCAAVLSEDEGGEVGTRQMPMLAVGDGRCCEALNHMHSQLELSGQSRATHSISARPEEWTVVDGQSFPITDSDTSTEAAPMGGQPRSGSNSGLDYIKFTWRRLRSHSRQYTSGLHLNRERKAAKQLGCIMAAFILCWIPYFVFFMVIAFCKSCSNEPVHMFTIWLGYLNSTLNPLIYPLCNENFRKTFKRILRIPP
Histamine H1 receptor (Homo sapiens, UniProt P35367), sequence (P35367 whole entry): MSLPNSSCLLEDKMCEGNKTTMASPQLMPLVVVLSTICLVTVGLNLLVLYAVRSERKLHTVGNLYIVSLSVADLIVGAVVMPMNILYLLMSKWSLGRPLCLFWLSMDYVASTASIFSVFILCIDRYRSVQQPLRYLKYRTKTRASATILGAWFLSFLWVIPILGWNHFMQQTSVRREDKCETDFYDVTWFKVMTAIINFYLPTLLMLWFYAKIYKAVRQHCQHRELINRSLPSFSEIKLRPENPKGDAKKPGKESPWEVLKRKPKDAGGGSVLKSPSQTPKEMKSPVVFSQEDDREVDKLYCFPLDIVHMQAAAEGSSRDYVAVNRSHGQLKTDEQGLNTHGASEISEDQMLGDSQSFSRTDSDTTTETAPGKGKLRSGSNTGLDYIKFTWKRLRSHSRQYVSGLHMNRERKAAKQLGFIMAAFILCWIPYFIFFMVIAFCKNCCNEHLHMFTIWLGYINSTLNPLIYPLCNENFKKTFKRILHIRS

For the molecule `N=C(NCCCc1c[nH]cn1)NC(=O)CCCCc1ccccc1` [UR-AK22], the Ki amounted to 2900 nM at Histamine H1 receptor [1] and 440 nM at Histamine H1 receptor [2].

As to `CC(CC(=O)NC(N)=NCCCc1cnc[nH]1)C1CCCCC1` (configuration not stated) [UR-AK24], at Histamine H1 receptor [2], the inhibition constant Ki is 2600 nM and 1600 nM.

Turning to `CC(C(=O)NC(N)=NCCCc1cnc[nH]1)C1CCCCC1` (configuration not stated) [UR-AK59], the Ki at Histamine H1 receptor [1] was 6000 nM and 2300 nM; on Histamine H1 receptor [2] it was 11000 nM.

Turning to `NC(=NCCCc1cnc[nH]1)NC(=O)CC1CCCCC1` [UR-AK62], the Ki at Histamine H1 receptor [1] was found to be 7000 nM; on Histamine H1 receptor [2], 4700 nM.

`N=C(NCCCc1c[nH]cn1)NC(=O)CCCC1CCCCC1` [UR-AK64]: the values for the Ki at Histamine H1 receptor [1] and on Histamine H1 receptor [2] were 990 nM and 350 nM, respectively.

Turning to `N=C(NCCCc1c[nH]cn1)NC(=O)CCCc1ccccc1` [UR-AK67], the Ki on Histamine H1 receptor [1] was 14000 nM; on Histamine H1 receptor [2], 2200 nM.

For `CC(C(=O)NC(N)=NCCCc1cnc[nH]1)c1ccccc1` (configuration not stated) [UR-AK68], the affinity at Histamine H1 receptor [1] corresponds to a Ki of 3500 nM.
